“And” between values parts separate entries of the source, which are not always exact repeats. Equal values may be shown once. Toxic doses and inconclusive results are not listed. How the source made its calls: active means survival T/C of 150% or more; inactive means T/C below 125% in these data.
System: P388 leukemia ip, CD2F1 mice, survival T/C
Assay: NCI In Vivo Anticancer Drug Screen. Data for tumor model P388 Leukemia (intraperitoneal) in CD2F1 (CDF1) mice
Settings: endpoint: median survival time, higher = longer survival
Summary of the method: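 Mice carrying the transplanted tumor received test compound or vehicle. Survival was recorded in each group, and the value is the treated-group measurement divided by that of the vehicle-treated control group.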

[1] = dose: 15.0 mg/kg/injection, schedule: Q01DX005 (ip), vehicle: saline with Tween-80
[2] = dose: 30.0 mg/kg/injection, schedule: Q01DX005 (ip), vehicle: saline with Tween-80
[3] = dose: 25.0 mg/kg/injection, schedule: Q01DX009 (ip), vehicle: saline with Tween-80
[4] = dose: 50.0 mg/kg/injection, schedule: Q01DX009 (ip), vehicle: saline with Tween-80
[5] = dose: 100.0 mg/kg/injection, schedule: Q01DX009 (ip), vehicle: saline with Tween-80
[6] = dose: 60.0 mg/kg/injection, schedule: Q01DX005 (ip), vehicle: saline with Tween-80
[7] = dose: 200.0 mg/kg/injection, schedule: Q01DX009 (ip), vehicle: saline with Tween-80

Measured: T/C

CC1=NCC[N-]CC[N-]CCN=C(C)C2CCCC1[N-]2.[Mn+3]
inactive: dose: 7.5 mg/kg/injection, schedule: Q01DX005 (ip), vehicle: saline with Tween-80 100 % of control | [1] 96 % of control | [2] 96 % of control

CC(=O)[C@H]1CC[C@H]2[C@@H]3C[C@H](C)C4=CC(=O)CC[C@]4(C)[C@@]3(F)[C@@H](O)C[C@]12C
inactive: dose: 100.0 mg/kg/injection, schedule: Q04DX003 (ip), vehicle: saline with Tween-80 95 % of control | dose: 200.0 mg/kg/injection, schedule: Q04DX003 (ip), vehicle: saline with Tween-80 87 % of control | dose: 400.0 mg/kg/injection, schedule: Q04DX003 (ip), vehicle: saline with Tween-80 100 % of control

C=C[C@@](C)(O)CC/C=C(/C)CCC=C(C)C
inactive: [3] 110 % of control | [4] 110 % of control | [5] 110 % of control | dose: 100.0 mg/kg/injection, schedule: Q04DX003 (ip), vehicle: saline 109 % of control | dose: 200.0 mg/kg/injection, schedule: Q04DX003 (ip), vehicle: saline 100 % of control | dose: 400.0 mg/kg/injection, schedule: Q04DX003 (ip), vehicle: saline 113 % of control

O=C1ON=C(COc2ccccc2)/C1=C\c1ccc(Cl)cc1
inactive: [1] 105 % of control | [2] 101 % of control | [6] 104 % of control

N#C/C(=C\c1cccs1)C(=O)c1ccco1
inactive: [4] 101 % of control | [5] 100 % of control | [7] 95 % of control

COc1ccc2oc3cc(Cl)ccc3c(=O)c2c1
inactive: [6] 118 % of control | dose: 120.0 mg/kg/injection, schedule: Q01DX005 (ip), vehicle: saline with Tween-80 101 % of control | dose: 240.0 mg/kg/injection, schedule: Q01DX005 (ip), vehicle: saline with Tween-80 100 % of control

O=C1C2=C(Nc3ccccc3N2)OC1c1ccc2c(c1)OCO2 (stereo not drawn)
inactive: dose: 60.0 mg/kg/injection, schedule: Q01DX005 (ip), vehicle: Klucel (hydroxypropylcellulose) (HPC) 100 % of control | dose: 120.0 mg/kg/injection, schedule: Q01DX005 (ip), vehicle: Klucel (hydroxypropylcellulose) (HPC) 86 % of control | dose: 240.0 mg/kg/injection, schedule: Q01DX005 (ip), vehicle: Klucel (hydroxypropylcellulose) (HPC) 89 % of control

CCN1C(C)N1P(=S)(OC1CC(C)(C)N(O)C(C)(C)C1)OC1CC(C)(C)N(O)C(C)(C)C1 (stereo not drawn)
inactive: dose: 50.0 mg/kg/injection, schedule: Q01DX005 (ip), vehicle: Klucel (hydroxypropylcellulose) (HPC) 93 % of control | dose: 100.0 mg/kg/injection, schedule: Q01DX005 (ip), vehicle: Klucel (hydroxypropylcellulose) (HPC) 86 % of control

CC(=O)Nc1nc(NC(C)=O)c(N=O)c(NC(C)=O)n1
inactive: [3] 103 % of control | dose: 25.0 mg/kg/injection, schedule: Q01DX009 (ip), vehicle: saline 108 % of control | [4] 103 % of control | dose: 50.0 mg/kg/injection, schedule: Q01DX009 (ip), vehicle: saline 108 % of control and 120 % of control | [5] 94 % of control | dose: 100.0 mg/kg/injection, schedule: Q01DX009 (ip), vehicle: saline 112 % of control

CCCCOP(=O)(O)OCCCC.[V]
inactive: dose: 6.25 mg/kg/injection, schedule: Q01DX009 (ip), vehicle: saline with Tween-80 99 % of control | dose: 12.5 mg/kg/injection, schedule: Q01DX009 (ip), vehicle: saline with Tween-80 96 % of control | [3] 97 % of control | [5] 104 % of control | [7] 103 % of control

CC(=O)Oc1[nH]c(=O)c2cccc3c2c1CCC3
inactive: [3] 102 % of control | [4] 101 % of control and 102 % of control | [5] 108 % of control and 112 % of control

Cc1noc2c1N=C(c1ccccc1O)CC(c1ccccc1)C2 (stereo not drawn)
inactive: dose: 50.0 mg/kg/injection, schedule: Q01DX009 (ip), vehicle: Klucel (hydroxypropylcellulose) (HPC) 100 % of control | dose: 100.0 mg/kg/injection, schedule: Q01DX009 (ip), vehicle: Klucel (hydroxypropylcellulose) (HPC) 110 % of control | dose: 200.0 mg/kg/injection, schedule: Q01DX009 (ip), vehicle: Klucel (hydroxypropylcellulose) (HPC) 99 % of control

Reference: PubChem BioAssay AID330 (DTP/NCI, 2004)
